The structures appear in SMILES notation. Values after ≈ are worked out from the molar mass of the structure shown.

One may read the inhibition as the drop in the measured response relative to a control, in per cent. Broadly, the IC50 is the concentration at which inhibition is half-maximal.

The species named for assay [1] is Homo sapiens. Description: Inhibition of alpha-glucosidase (unknown origin) using PNPG as substrate at 0.03 uM incubated for 15 min prior to substrate addition measured after 15 min by spectrophotometric analysis.
In assay [2] the target is Lysosomal alpha-glucosidase (Rattus norvegicus) (UniProt Q6P7A9). Nature of the assay: Inhibition ofRattus norvegicus alpha-glucosidase isolated from intestine using PNPG as substrate at 0.03 uM incubated for 15 min prior to substrate addition measured after 15 min by spectrophotometric analysis.
Sequence of Lysosomal alpha-glucosidase (Rattus norvegicus) (Q6P7A9 whole entry): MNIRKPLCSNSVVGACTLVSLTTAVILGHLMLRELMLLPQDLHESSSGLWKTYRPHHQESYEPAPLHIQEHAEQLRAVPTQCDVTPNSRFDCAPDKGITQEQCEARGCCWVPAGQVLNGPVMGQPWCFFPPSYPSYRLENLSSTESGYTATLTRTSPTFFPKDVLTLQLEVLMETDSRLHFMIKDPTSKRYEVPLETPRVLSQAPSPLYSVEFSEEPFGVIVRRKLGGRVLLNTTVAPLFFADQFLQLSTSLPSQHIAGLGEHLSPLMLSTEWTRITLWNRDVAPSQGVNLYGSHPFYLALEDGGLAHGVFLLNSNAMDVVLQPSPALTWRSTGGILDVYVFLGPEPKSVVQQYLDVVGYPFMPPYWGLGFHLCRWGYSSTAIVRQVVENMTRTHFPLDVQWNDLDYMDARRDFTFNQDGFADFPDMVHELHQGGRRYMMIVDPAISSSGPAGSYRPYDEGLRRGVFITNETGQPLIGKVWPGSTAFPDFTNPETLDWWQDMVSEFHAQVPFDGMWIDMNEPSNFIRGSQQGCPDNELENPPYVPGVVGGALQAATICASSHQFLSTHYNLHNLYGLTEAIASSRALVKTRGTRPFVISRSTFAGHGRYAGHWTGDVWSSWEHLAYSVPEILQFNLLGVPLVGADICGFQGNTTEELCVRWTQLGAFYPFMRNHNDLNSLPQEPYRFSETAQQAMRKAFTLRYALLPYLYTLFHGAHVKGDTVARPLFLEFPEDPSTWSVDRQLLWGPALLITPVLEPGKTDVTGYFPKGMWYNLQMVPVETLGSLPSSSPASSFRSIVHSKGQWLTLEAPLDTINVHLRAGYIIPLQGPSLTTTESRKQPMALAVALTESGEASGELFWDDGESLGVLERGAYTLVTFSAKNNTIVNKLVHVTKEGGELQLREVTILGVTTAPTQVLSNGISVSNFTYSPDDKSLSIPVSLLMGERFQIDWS
Assay [3] concerns Radical scavenging activity. Description: Antioxidant activity assessed as inhibition of DPPH radical production at 54.05 ug/ml after 30 min by microplate assay. The class given is functional. A general note: The DPPH test is a chemical assay of radical scavenging.
Assay [4] has as its target Lysosomal alpha-glucosidase (Rattus norvegicus) (UniProt Q6P7A9). Description: Inhibition ofRattus norvegicus alpha-glucosidase isolated from intestine using PNPG as substrate at 0.02 uM incubated for 15 min prior to substrate addition measured after 15 min by spectrophotometric analysis.
Assay [5] in a line: Inhibition of alpha-glucosidase (unknown origin) using PNPG as substrate at 0.02 uM incubated for 15 min prior to substrate addition measured after 15 min by spectrophotometric analysis. As to conditions: Homo sapiens.
The species entered for assay [6] is Homo sapiens. Description: Inhibition of alpha-glucosidase (unknown origin) using PNPG as substrate at 0.83 uM incubated for 15 min prior to substrate addition measured after 15 min by spectrophotometric analysis.
A short description of assay [7]: Inhibition of alpha-glucosidase (unknown origin) using PNPG as substrate incubated for 15 min prior to substrate addition measured after 15 min by spectrophotometric analysis. Set-up: species or system Homo sapiens.
For assay [8], the target named is Lysosomal alpha-glucosidase (Rattus norvegicus) (UniProt Q6P7A9). Particulars: 0.83 uM.
Description: Inhibition ofRattus norvegicus alpha-glucosidase isolated from intestine using PNPG as substrate at 0.83 uM incubated for 15 min prior to substrate addition measured after 15 min by spectrophotometric analysis
The subject of assay [9] is Radical scavenging activity. Description: Antioxidant activity assessed as inhibition of DPPH radical production after 30 min by microplate assay. It is filed as functional.
In assay [10] the test system is Radical scavenging activity. Description: Antioxidant activity assessed as inhibition of DPPH radical production at 108.11 ug/ml after 30 min by microplate assay. It is filed as functional.
Assay [11] relates to Radical scavenging activity. Description: Antioxidant activity assessed as inhibition of DPPH radical production at 10.81 ug/ml after 30 min by microplate assay. It is filed as functional.

Consider `O=c1c(O)c(-c2ccc(O)c(O)c2)oc2c(O)ccc(O)c12`, for which the inhibition is 14.3% in assay [1], below 50% in [2] and 2.63% in [3].
As for `O=c1c(O[C@@H]2O[C@H](CO)[C@@H](O)[C@H](O)[C@H]2O)c(-c2ccc(O)cc2)oc2cc(O)cc(O)c12`, the inhibition was below 50% in [4], 18% in assay [5] and 1.96% in [3].
`C[C@H]1O[C@H](O[C@H]2[C@H](O)[C@@H](O)[C@@H](O[C@H]3[C@H](O)[C@@H](O)C(O)O[C@@H]3CO)O[C@@H]2CO)[C@H](O)[C@@H](O)[C@@H]1N[C@H]1C=C(CO)[C@@H](O)[C@H](O)[C@H]1O` (some centres undefined) [ACARBOSE]: the inhibition amounted to 68.4% in assay [6] and 55.2% in [8]. The midpoint of inhibition in assay [7], the IC50, lay at 895 µM.
In the case of `Cc1cc(C(C)(C)C)c(O)c(C(C)(C)C)c1` [BUTYLATED HYDROXYTOLUENE], the IC50 in [9] was 40.8 µg/mL (≈ 185 µM). The inhibition in assay [10] stood at 80.5%.
For the compound `O=c1c(O[C@@H]2O[C@H](CO)[C@H](O)[C@H](O)[C@H]2O)c(-c2ccc(O)c(O)c2)oc2cc(O)cc(O)c12` [HYPEROSIDE], the figures for the inhibition in [4], in assay [5] and in assay [3] were below 50%, 14.2% and 86.5%, respectively. For the same compound, the IC50 in assay [9] turned out to be 24.02 µg/mL (≈ 51.7 µM).
`O=c1c(O[C@@H]2O[C@H](CO)[C@@H](O)[C@H](O)[C@H]2O)c(-c2ccc(O)c(O)c2)oc2cc(O)cc(O)c12` [ISOQUERCETIN]: the inhibition in assay [4] was below 50%; in [5], 14.4%; in assay [3], 86.1%. In addition, the IC50 in [9] is 24.02 µg/mL (≈ 51.7 µM).
Turning to `O=c1c(O)c(-c2ccc(O)cc2)oc2cc(O)cc(O)c12` [KAEMPFEROL], the IC50 in assay [9] came to 14.78 µg/mL (≈ 51.6 µM); in assay [7], 61.8 µM. Moreover, the values for the inhibition in assay [1], in assay [2] and in [3] were 51.5%, 99.3% and 90.1%, respectively.
Regarding `CCCOC(=O)c1cc(O)c(O)c(O)c1` [PROPYL GALLATE], the IC50 in assay [9] worked out at 3.96 µg/mL (≈ 18.7 µM). Besides, the inhibition in assay [11] worked out at 89%.
With `C[C@H]1[C@H](C)CC[C@]2(C(=O)O)CC[C@]3(C)C(=CC[C@@H]4[C@@]5(C)CC[C@H](O)C(C)(C)[C@@H]5CC[C@]43C)[C@H]12` [URSOLIC ACID], the inhibition is below 50% in assay [4] and 99.7% in [5]. In addition, 1.78 µM corresponded to half-maximal inhibition in [7] (IC50).

Source of the values: ChEMBL document CHEMBL3046526, “-Glucosidase inhibitory and antioxidant properties and antidiabetic activity of Hypericum ascyron L” (Med Chem Res, 2011).
